Measurements taken from US7517889B2, “2,6-substituted-4-monosubstitutedamino-pyrimidine as prostaglandin D2 receptor antagonists” (Aventis Pharmaceuticals, Inc., priority 2004, dated 2009).
pIC50: −log10 of the molar value. Counter-ions that a name gives are not always drawn.

What follows are compounds tested against T1, DP receptor (Homo sapiens, UniProt Q13258) (assay: SPA cAMP assay in human LS174 T cells (human DP functional assay)). Conditions: inhibition of PGD2 (15 nM final) stimulated cAMP, LS174T cells expressing endogenous DP receptor.
T1 construct: the human cell line LS174T, which expresses the endogenous DP receptor; endogenous in cells; host or cells: LS174T human cell line
T1 sequence (Q13258 1-359): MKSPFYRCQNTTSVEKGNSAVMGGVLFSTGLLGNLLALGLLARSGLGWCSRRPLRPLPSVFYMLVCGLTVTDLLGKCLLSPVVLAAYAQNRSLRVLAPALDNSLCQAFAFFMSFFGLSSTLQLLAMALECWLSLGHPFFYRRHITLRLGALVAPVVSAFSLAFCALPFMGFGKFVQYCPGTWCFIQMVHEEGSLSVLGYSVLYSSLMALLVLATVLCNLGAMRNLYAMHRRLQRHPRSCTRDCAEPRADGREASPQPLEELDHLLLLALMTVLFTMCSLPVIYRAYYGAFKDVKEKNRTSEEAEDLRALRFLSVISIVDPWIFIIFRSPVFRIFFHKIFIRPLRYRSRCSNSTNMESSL
Assay type: cell-based
Procedure, shortened: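 LS174T cells with endogenous DP receptor, 45,000/well seeded overnight, exposed to compounds at 11 points for 15 min at 37 °C in buffer containing IBMX, with PGD2 stimulation.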

**Q.** With `COc1ccc(CCNc2cc(-c3ccc(-c4cnco4)s3)nc(OC)n2)cc1` [Example 11(a), [2-Methoxy-6-(5-oxazol-5-yl-thiophen-2-yl)-pyrimidin-4-yl]-[2-(4-methoxy-phenyl)-ethyl]-amine] as the compound, how does the pIC50 read?
**A.** 8.64

**Q.** With `COc1ccc(CCNc2cc(-c3ccsc3/C=N/O)nc(OC)n2)cc1` [Example 26(d), 3-{2-Methoxy-6-[2-(4-methoxy-phenyl)-ethylamino]-pyrimidin-4-yl}-thiophene-2-carbaldehyde oxime] as the compound, how does the pIC50 read?
**A.** 9.40

**Q.** How did the pIC50 turn out when `COc1nc(NCCc2c(F)cccc2Cl)cc(-c2ccc(=O)n(Cc3n[nH]c(=O)o3)c2)n1` [Example 33, 5-{6-[2-(2-Chloro-6-fluoro-phenyl)-ethylamino]-2-methoxy-pyrimidin-4-yl}-1-(5-oxo-4,5-dihydro-[1,3,4]oxadiazol-2-ylmethyl)-1H-pyridin-2-one] was run?
**A.** 8.92

**Q.** How did the pIC50 turn out when `COc1ccc(CCNc2cc(-c3cccc(S(N)(=O)=O)c3)nc(OC)n2)cc1` [Example 3, 3-{2-Methoxy-6-[2-(4-methoxy-phenyl)-ethylamino]-pyrimidin-4-yl}-benzenesulfonamide] was run?
**A.** 8.54

**Q.** How did the pIC50 turn out when `COc1ccc(CCNc2cc(-c3cc4ccccc4s3)nc(OC)n2)cc1` [Example 10(g), (6-Benzo[b]thiophen-2-yl-2-methoxy-pyrimidin-4-yl)-[2-(4-methoxy-phenyl)-ethyl]-amine] was run?
**A.** 8.29

**Q.** With `COc1ccc(CCNc2cc(-c3ccc(C(C)=O)cc3)nc(OC)n2)cc1` [Example 10(h), 1-(4-{2-Methoxy-6-[2-(4-methoxy-phenyl)-ethylamino]-pyrimidin-4-yl}-phenyl)-ethanone] as the compound, how does the pIC50 read?
**A.** 8.20

**Q.** With `COc1cccc(-c2cc(NCCc3ccc([N+](=O)[O-])cc3)nc(OC)n2)c1` [Example 43(b), [2-Methoxy-6-(3-methoxy-phenyl)-pyrimidin-4-yl]-[2-(4-nitro-phenyl)-ethyl]-amine] as the compound, how does the pIC50 read?
**A.** 9.05

**Q.** With `COc1ccc(CCNc2cc(-c3ccc(C(=O)O)s3)nc(OC)n2)cc1` [Example 8(a), 5-{2-Methoxy-6-[2-(4-methoxy-phenyl)-ethylamino]-pyrimidin-4-yl}-thiophene-2-carboxylic acid trifluoroacetate] as the compound, how does the pIC50 read?
**A.** 9.48

**Q.** How did the pIC50 turn out when `COc1ccc(CCNc2cc(-c3ccc(N4CCOCC4)cc3)nc(OC)n2)cc1` [Example 10(k), [2-Methoxy-6-(4-morpholin-4-yl-phenyl)-pyrimidin-4-yl]-[2-(4-methoxy-phenyl)-ethyl]-amine] was run?
**A.** 7.89

**Q.** How did the pIC50 turn out when `CCNC(=O)Oc1cccc(-c2cc(NCCc3ccc(Cl)cc3Cl)nc(OC)n2)c1` [Example 60, Ethyl-carbamic acid 3-{6-[2-(2,4-dichloro-phenyl)-ethylamino]-2-methoxy-pyrimidin-4-yl}-phenyl ester] was run?
**A.** 9.30

**Q.** With `COc1nc(NCCc2ccc(OC(F)F)cc2)cc(-c2cccc(S(C)(=O)=O)c2)n1` [example 46(d), [2-(4-Difluoromethoxy-phenyl)-ethyl]-[6-(3-methanesulfonyl-phenyl)-2-methoxy-pyrimidin-4-yl]-amine hydrochloride] as the compound, how does the pIC50 read?
**A.** 7.77

**Q.** How did the pIC50 turn out when `COc1nc(NCCc2ccc(OC)c(F)c2)cc(-c2cccc(-c3nn[nH]n3)c2)n1` [Example 40, [2-(3-Fluoro-4-methoxy-phenyl)-ethyl]-{2-methoxy-6-[3-(2H-tetrazol-5-yl)-phenyl]-pyrimidin-4-yl}-amine] was run?
**A.** 9.40

**Q.** With `COc1ccc(CCNc2cc(-c3ccc4cn[nH]c4c3)nc(OC)n2)cc1` [Example 53(b), [6-(1H-Indazol-6-yl)-2-methoxy-pyrimidin-4-yl]-[2-(4-methoxy-phenyl)-ethyl]-amine] as the compound, how does the pIC50 read?
**A.** 9.02

**Q.** With `COc1ccc(CCNc2cc(-c3ccncc3)nc(OC)n2)cc1` [Example 35(q), [2-(4-Methoxy-phenyl)-ethyl]-(2-methoxy-6-pyridin-4-yl-pyrimidin-4-yl)-amine] as the compound, how does the pIC50 read?
**A.** 8.10

**Q.** With `COc1nc(NCCc2ccc(C(F)(F)F)cc2F)cc(-c2ccc3[nH]cc(CC(=O)O)c3c2)n1` [Example 52, (5-{6-[2-(2-Fluoro-4-trifluoromethyl-phenyl)-ethylamino]-2-methoxy-pyrimidin-4-yl}-1H-indol-3-yl)-acetic acid] as the compound, how does the pIC50 read?
**A.** 9.40

**Q.** `COc1ccc(CCNc2cc(-c3ccc(F)c(CNCCN(C)C)c3)nc(OC)n2)cc1` [Example 13(d), N-(2-Fluoro-5-{2-methoxy-6-[2-(4-methoxy-phenyl)-ethylamino]-pyrimidin-4-yl}-benzyl)-N′,N′-dimethyl-ethane-1,2-diamine hydrochloride] was tested. Which pIC50 did it give?
**A.** 7.25

**Q.** How did the pIC50 turn out when `COc1ccc(CCNc2cc(-c3cccc4cnccc34)nc(OC)n2)cc1` [Example 8(g), (6-Isoquinolin-5-yl-2-methoxy-pyrimidin-4-yl)-[2-(4-methoxy-phenyl)-ethyl]-amine] was run?
**A.** 7.19

**Q.** `COc1cccc(-c2cc(NCCCc3ccccc3)nc(OC)n2)c1` [Example 43(l), [2-Methoxy-6-(3-methoxy-phenyl)-pyrimidin-4-yl]-(3-phenyl-propyl)-amine hydrochloride] was tested. Which pIC50 did it give?
**A.** 5.77

**Q.** With `COC(=O)C1(c2cccc(-c3cc(NCCc4ccc(OC(F)(F)F)cc4)nc(OC)n3)c2)CCOCC1` [Example 84(b), 4-(3-{2-Methoxy-6-[2-(4-trifluoromethoxy-phenyl)-ethylamino]-pyrimidin-4-yl}-phenyl)-tetrahydro-pyran-4-carboxylic acid methyl ester] as the compound, how does the pIC50 read?
**A.** 7.15

**Q.** With `COc1ccc(CCNc2cc(-c3cccnc3)nc(OC)n2)cc1` [Example 35(x), [2-methoxy-(6-pyridin-3-yl)-pyrimidin-4-yl]-[2-(4-methoxy-phenyl)-ethyl]-amine] as the compound, how does the pIC50 read?
**A.** 8.00

**Q.** `COc1ccc(CCNc2cc(-c3ccccc3NS(C)(=O)=O)nc(OC)n2)cc1` [Example 10(d), N-(2-{2-Methoxy-6-[2-(4-methoxy-phenyl)-ethylamino]-pyrimidin-4-yl}-phenyl)-methanesulfonamide] was tested. Which pIC50 did it give?
**A.** 8.70

**Q.** How did the pIC50 turn out when `COc1ccc(CCNc2cc(-c3ccc4[nH]ccc4c3)nc(OC)n2)cc1` [Example 10(c), [6-(1H-Indol-5-yl)-2-methoxy-pyrimidin-4-yl]-[2-(4-methoxy-phenyl)-ethyl]-amine] was run?
**A.** 9.15

**Q.** `COc1nc(NCCc2ccc(Cl)cc2Cl)cc(-c2cccc(C(C)(C)C(=O)NS(=O)(=O)Cc3ccccc3)c2)n1` [Example 95(b), N-[2-(3-{6-[2-(2,4-Dichloro-phenyl)-ethylamino]-2-methoxy-pyrimidin-4-yl}-phenyl)-2-methyl-propionyl]-C-phenyl-methanesulfonamide] was tested. Which pIC50 did it give?
**A.** 8.70

**Q.** How did the pIC50 turn out when `COc1ccc(CNc2cc(-c3cccc(OC)c3)nc(OC)n2)cc1` [Example 43(k), (4-Methoxy-benzyl-[2-methoxy-6-(3-methoxy-phenyl)-pyrimidin-4-yl]-amine hydrochloride] was run?
**A.** 5.97

**Q.** `COc1nc(NCCc2ccc(OC(F)F)cc2)cc(-c2cccc(NC(C)=O)c2)n1` [Example 46(c), N-(3-{6-[2-(4-Difluoromethoxy-phenyl)-ethylamino]-2-methoxy-pyrimidin-4-yl}-phenyl)-acetamide hydrochloride] was tested. Which pIC50 did it give?
**A.** 8.40

**Q.** With `COc1nc(NCCc2ccc(Cl)cc2Cl)cc(-c2cccc(C(C)(C)C(=O)NC3CCOCC3)c2)n1` [Example 95(d), 2-(3-{6-[2-(2,4-Dichloro-phenyl)-ethylamino]-2-methoxy-pyrimidin-4-yl}-phenyl)-N-(tetrahydro-pyran-4-yl)-isobutyramide] as the compound, how does the pIC50 read?
**A.** 6.56

**Q.** `CCNS(=O)(=O)c1cccc(-c2cc(NCCc3ccc(OC)cc3)nc(OC)n2)c1` [Example 4(b), N-Ethyl-3-{2-methoxy-6-[2-(4-methoxy-phenyl)-ethylamino]-pyrimidin-4-yl}-benzenesulfonamide] was tested. Which pIC50 did it give?
**A.** 8.18
